Measurements: patent publication US5980899A, “Identification of peptides that stimulate hepatitis C virus specific cytotoxic T cells” (The United States of America as represented by the …, priority 1992, dated 1999)

How the values were obtained:
T cells = test: Response to P17 stimulation in a chronically infected chimpanzee; type: cell-based; conditions: one chronically infected chimpanzee
[1] = test system: 18Neo (BALB/c 3T3 fibroblast, H-2^d) target cells
HCV = conditions: chronic HCV liver disease; cited from earlier work

Row | Compound | cytotoxicity in response to stimulation (T cells) | toxicity that might affect activity in CTL stimulation or utility in vivo [1] | patients who respond (HCV) | responders who relapse after treatment is stopped (HCV)
1 | CSCC[C@H](N)C(=O)N[C@@H](CO)C(=O)N[C@@H](Cc1ccc(O)cc1)C(=O)N[C@@H](CO)C(=O)N[C@@H](Cc1c[nH]c2ccccc12)C(=O)N[C@H](C(=O)NCC(=O)N[C@@H](C)C(=O)N[C@@H](CC(C)C)C(=O)N[C@H](C(=O)N[C@H](C(=O)N1CCC[C@H]1C(=O)N[C@@H](CS)C(=O)N[C@@H](C)C(=O)N[C@@H](C)C(=O)N[C@@H](CCC(=O)O)C(=O)O)[C@@H](C)O)C(C)C)[C@@H](C)O [P17, MSYSWTGALVTPCAAE] | not cytotoxicity | did not show any toxicity |  | 
2 | α-interferon |  |  | less than half | approximately 50%
